In one test the test system is LS174T. In words: Inhibition of cancer cell growth as measured by cell number, LS174T. The class given is cell-based. As to conditions: Homo sapiens.
The test system of a further test is SKBR3. Kind of test: Inhibition of cancer cell growth as measured by cell number, SKBR3.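 Further: SK-BR-3 cells were selected as a line overexpressing HER2/neu.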 The class given is cell-based, human. As to conditions: Homo sapiens, SK-BR-3, 48 h, read-out: IC50 SKBR3, cell number, Sulforhodamine B, 48 hours exposure; Table 7.
In the next test the test system is LX1. Kind of test: Inhibition of cancer cell growth as measured by cell number, LX1. The note with it: Homo sapiens, read-out: IC50 LX1. Format: cell-based.
The subject of the next test is LNCAP. In words: Inhibition of cancer cell growth as measured by cell number, LNCAP. The class given is cell-based. As to conditions: Homo sapiens, 48 h, read-out: IC50 LNCAP.
Another test deals with PC3. In words: Inhibition of cancer cell growth as measured by cell number, PC3. Format: cell-based. The note with it: Homo sapiens, read-out: IC50 PC3.
The subject of another test is SW948. Kind of test: Inhibition of cancer cell growth as measured by cell number, SW948. Format: cell-based. The note with it: Homo sapiens, read-out: IC50 SW948.
Another test relates to HL60. In words: Inhibition of cancer cell growth as measured by cell number, HL60. Format: cell-based. The note with it: Homo sapiens, read-out: IC50 HL60.
For the next test, the system named is B7474. In words: Inhibition of cancer cell growth as measured by cell number, B7474. The class given is cell-based. As to conditions: Homo sapiens, read-out: IC50 B7474.
Another test has as its system A27805. Kind of test: Inhibition of cancer cell growth as measured by cell number, A27805. Format: cell-based. As to conditions: Homo sapiens, read-out: IC50 A27805.
The test system of test [1] is A431. In words: Inhibition of cancer cell growth as measured by cell number, A431.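 Further: human A431 line, picked because it overexpresses epidermal growth factor receptor (EGFR).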 Format: cell-based, human. As to conditions: Homo sapiens, A-431, 48 h, Table 6.
From the text: (§1) The cell lines were chosen since they overexpressed epidermal growth factor receptor (EGFR) (i.e. A431) or HER2/neu (SKBR3), or had little to no expression of the these receptors (SW620, LOX, MCF7).
In a further test the test system is CX1. In words: Inhibition of cancer cell growth as measured by cell number, CX1. Format: cell-based. As to conditions: Homo sapiens, read-out: IC50 CX1.
The next test relates to SW620. In words: Inhibition of cancer cell growth as measured by cell number, SW620.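 Further: SW620 was included as a cell line with little or no EGFR or HER2/neu expression, in contrast to receptor-overexpressing lines.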 The class given is cell-based, human. The note with it: Homo sapiens, SW-620, 48 h, Table 4.
A further test concerns HTB161. In words: Inhibition of cancer cell growth as measured by cell number, HTB161. The class given is cell-based. The note with it: Homo sapiens, read-out: IC50 HTB161.
A further test relates to A549. In words: Inhibition of cancer cell growth as measured by cell number, A549. Format: cell-based. As to conditions: Homo sapiens, read-out: IC50 A549.
Another test relates to NHEK. In words: Inhibition of cell growth by incorporation of [3H]-thymidine, NHEK. The class given is cell-based, human. As to conditions: Homo sapiens, read-out: IC50 NHEK.
In test [2] the target is epidermal growth factor receptor kinase (Homo sapiens, UniProt P00533). In words: biochemical.
The test system of another test is DU145. Kind of test: Inhibition of cancer cell growth as measured by cell number, DU145. Format: cell-based. As to conditions: Homo sapiens, read-out: IC50 DU145.
Another test relates to A2780DDP. In words: Inhibition of cancer cell growth as measured by cell number, A2780DDP. The note with it: Homo sapiens, read-out: IC50 A2780DDP. The class given is cell-based.
Another test concerns NEC. Kind of test: Inhibition of cancer cell growth as measured by cell number, NEC. Format: cell-based. As to conditions: Homo sapiens, 48 h, read-out: IC50 NEC.
Another test deals with CCL228. In words: Inhibition of cancer cell growth as measured by cell number, CCL228. The class given is cell-based. The note with it: Homo sapiens, read-out: IC50 CCL228.
The test system of another test is MCF7. Kind of test: Inhibition of cancer cell growth as measured by cell number, MCF7.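 Further: MCF7 was included as a line with little or no EGFR or HER2/neu expression, in contrast to the receptor-overexpressing lines of the panel.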 Format: cell-based, human. The note with it: Homo sapiens, MCF7, 48 h, read-out: IC50 MCF7, cell number, Sulforhodamine B, 48 hours exposure; Table 5.
Another test relates to T47D. Kind of test: Inhibition of cancer cell growth as measured by cell number, T47D. Format: cell-based. The note with it: Homo sapiens.
The next test deals with HCT15. In words: Inhibition of cancer cell growth as measured by cell number, HCT15. As to conditions: Homo sapiens, read-out: IC50 HCT15. Format: cell-based.
The next test relates to CACO2. In words: Inhibition of cancer cell growth as measured by cell number, CACO2. Format: cell-based. As to conditions: Homo sapiens, read-out: IC50 CACO2.
Test [3] has as its target recombinant human MEK 1 (MAPKK) and recombinant human ERK2 (MAPK). In words: Mitogen Activated Protein Kinase (MAPK) assay, two component coupled MEK 1 / ERK2.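 Further: MEK 1-activated ERK2 phosphorylates MBP or Myc peptide with 33P-ATP, filter capture and scintillation counting, inhibitor preincubated with ERK2 30 min at 0 °C, inhibition relative to uninhibited control.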 Format: biochemical. As to conditions: separate entries for the same compound = evaluated more than one time.
The next test has as its system COLO205. In words: Inhibition of cancer cell growth as measured by cell number, COLO205. The class given is cell-based. The note with it: Homo sapiens, COLO 205, 48 h, read-out: IC50 COLO205.
The next test concerns MIP. In words: Inhibition of cancer cell growth as measured by cell number, MIP. As to conditions: Homo sapiens, read-out: IC50 MIP. Format: cell-based.
For the next test, the system named is CCRF-CFM. Kind of test: Inhibition of cancer cell growth as measured by cell number, CCRF-CFM. Format: cell-based. The note with it: Homo sapiens, read-out: IC50 CCRF-CFM.
For another test, the system named is LOX. Kind of test: Inhibition of cancer cell growth as measured by cell number, LOX.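 Further: LOX cells served as a line with low or absent EGFR and HER2/neu expression, in contrast to receptor-overexpressing lines.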 As to conditions: Homo sapiens, LOX, 48 h, Table 6. Format: cell-based, human.
Test [4] relates to A431. In words: Inhibition of cell growth by incorporation of [3H]-thymidine, A431. Format: cell-based, human. The note with it: Homo sapiens, A-431; [3H]-thymidine incorporation; A431; read-out: IC50 A431. For orientation: Uptake of a labelled nucleoside into DNA is a usual measure of proliferation.
[5] abbreviates: cell number, Sulforhodamine B, 48 hours exposure, Table 4.

The structures appear in SMILES notation. Values after ≈ are worked out from the molar mass of the structure shown. Read-outs that look alike come from different tables or passages of the source.

One may read the IC50 as the concentration that gives 50% inhibition.

Chain of epidermal growth factor receptor kinase (P00533 25-1210): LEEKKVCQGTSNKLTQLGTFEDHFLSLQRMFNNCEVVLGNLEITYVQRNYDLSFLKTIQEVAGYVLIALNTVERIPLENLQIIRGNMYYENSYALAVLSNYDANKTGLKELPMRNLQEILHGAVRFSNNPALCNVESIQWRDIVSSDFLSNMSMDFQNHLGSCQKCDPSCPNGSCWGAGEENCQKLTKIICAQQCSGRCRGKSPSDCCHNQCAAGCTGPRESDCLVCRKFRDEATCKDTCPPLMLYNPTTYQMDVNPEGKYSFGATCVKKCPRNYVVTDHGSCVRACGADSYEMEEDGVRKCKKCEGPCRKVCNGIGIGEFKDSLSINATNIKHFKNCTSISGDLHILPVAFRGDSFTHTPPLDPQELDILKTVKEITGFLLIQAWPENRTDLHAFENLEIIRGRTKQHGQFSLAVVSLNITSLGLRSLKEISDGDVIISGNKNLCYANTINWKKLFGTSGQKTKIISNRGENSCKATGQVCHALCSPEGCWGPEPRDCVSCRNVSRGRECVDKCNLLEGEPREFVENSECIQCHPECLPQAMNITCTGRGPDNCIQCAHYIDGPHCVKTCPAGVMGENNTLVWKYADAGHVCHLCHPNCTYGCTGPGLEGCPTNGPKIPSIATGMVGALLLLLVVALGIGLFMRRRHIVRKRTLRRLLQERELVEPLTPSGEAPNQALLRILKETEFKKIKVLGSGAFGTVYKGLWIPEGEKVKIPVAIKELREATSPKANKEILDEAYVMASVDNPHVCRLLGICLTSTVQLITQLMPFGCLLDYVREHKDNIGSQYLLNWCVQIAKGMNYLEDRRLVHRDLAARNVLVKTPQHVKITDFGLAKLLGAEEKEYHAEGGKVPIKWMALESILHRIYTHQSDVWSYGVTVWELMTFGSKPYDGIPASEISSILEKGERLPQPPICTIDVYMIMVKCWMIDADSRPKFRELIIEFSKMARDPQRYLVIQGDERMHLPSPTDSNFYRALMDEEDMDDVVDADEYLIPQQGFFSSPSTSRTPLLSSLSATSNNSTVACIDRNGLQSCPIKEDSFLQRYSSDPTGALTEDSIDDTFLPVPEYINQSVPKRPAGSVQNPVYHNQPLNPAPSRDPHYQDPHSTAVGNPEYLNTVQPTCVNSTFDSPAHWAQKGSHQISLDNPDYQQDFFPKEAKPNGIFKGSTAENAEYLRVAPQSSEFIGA
From the text for LOX: as §1
From the text for MCF7: as §1
Method for NHEK: Representative compounds of this invention were evaluated for their ability to inhibit the growth of the cell lines described below in vitro. The inhibition is quantitated by measuring the decrease in the incorporation of radio-labeled thymidine when the cells are grown in the presence of the inhibitor. […] Cells were routinely grown in a humidified incubator in 5% CO2 in air.
Cells were seeded at 10,000 cells/well in 96 well plates in complete media and allowed to grow to log phase. At this stage the complete media was replaced with media containing 0.5% FBS (for cells growing in 10% FBS) or media lacking epidermal growth factor (EGF) (for cells growing in serum free media). […] Media with test compound was then removed and complete media was added back. The cells were allowed to grow for 18 hours. This is followed by incubation in [^3H]thymidine (1mCi/ml in serum/EGF media) for 4 hours. Cells were lysed in 0.5 M NaOH for at least 30 min at 37°C and radioactivity analyzed.
The % inhibition of the compound evaluated was determined for at least three different concentrations and the IC50 value evaluated from the dose response curve. […] CPM(control) is in units of counts per minute and is a number expressing the amount of [^3H]thymidine incorporated onto the DNA when cells are grown in the absence of test compound as measured by liquid scintillation counting.
From the text for SKBR3: as §1
From the text for SW620: as §1

In the case of `CC#CC(=O)Nc1ccc2ncc(C#N)c(Nc3cccc(Br)c3)c2c1` [Example 15, N-[4-[(3-Bromophenyl)amino]-3-cyano-6-quinolinyl]-2-butynamide], the IC50 is above 33 µg/mL in the test with LS174T (48 h, read-out: IC50 LS174T); above 33 µg/mL in the test with SKBR3; above 33 µg/mL in the test with LX1 (LX-1, 48 h); above 33 µg/mL in the test with LNCAP; above 33 µg/mL with PC3 (PC-3, 48 h); above 33 µg/mL in the test with SW948 (SW948, 48 h). The IC50 was above 33 µg/mL in the test with HL60 (HL-60, 48 h); above 33 µg/mL in the test on B7474 (48 h); 33 µg/mL (≈ 81.4 µM) with A27805 (48 h); 22 µg/mL (≈ 54.3 µM) in the test with A431 [1] (read-out: IC50 A431, cell number, Sulforhodamine B, 48 hours exposure); 33 µg/mL (≈ 81.4 µM) in the test on CX1 (CX-1, 48 h); 33 µg/mL (≈ 81.4 µM) in the test on SW620 (read-out: IC50 SW620, cell number, Sulforhodamine B, 48 hours exposure). Besides, the IC50 in the test on HTB161 (48 h) is 33 µg/mL (≈ 81.4 µM); in the test on A549 (A549, 48 h) it was above 33 µg/mL; with NHEK, 4000 nM; in [2], 0.6 nM; in the test with DU145 (DU-145, 48 h), 18 µg/mL (≈ 44.4 µM); in the test with A2780DDP (48 h), 33 µg/mL (≈ 81.4 µM). Besides, the IC50 in the test on NEC was above 33 µg/mL; with CCL228 (48 h) it was above 33 µg/mL; with MCF7, above 33 µg/mL; in the test on T47D (48 h, read-out: IC50 T47D), above 33 µg/mL; in the test with HCT15 (HCT-15, 48 h), above 33 µg/mL; in the test on CACO2 (Caco-2, 48 h), 2.41 µg/mL (≈ 5.94 µM). The IC50 in test [3] is above 100000 nM; with COLO205 it was 33 µg/mL (≈ 81.4 µM); in the test with MIP (48 h), 33 µg/mL (≈ 81.4 µM); with CCRF-CFM (48 h), above 33 µg/mL; in the test with LOX (read-out: IC50 LOX, cell number, Sulforhodamine B, 48 hours exposure) it was above 33 µg/mL.

In the case of `CC(=O)Nc1ccc2ncc(C#N)c(Nc3cccc(Br)c3)c2c1` [Example 16, N-[4-[(3-Bromophenyl)amino]-3-cyano-6-quinolinyl] acetamide], the IC50 amounted to 1800 nM with A431 [4]; 0.434 µg/mL (≈ 1.14 µM) in the test with LS174T (cell number, Sulforhodamine B, 48 hours exposure, Table 5, read-out: IC50 LS174T); 0.644 µg/mL (≈ 1.69 µM) in the test with LX1 (LX-1, cell number, Sulforhodamine B, 48 hours exposure, Table 6); 3.04 µg/mL (≈ 7.97 µM) with PC3 (PC-3, cell number, Sulforhodamine B, 48 hours exposure, Table 7); 0.928 µg/mL (≈ 2.44 µM) with SW948 (SW948, cell number, Sulforhodamine B, 48 hours exposure, Table 5); 0.696 µg/mL (≈ 1.83 µM) in the test with HL60 (HL-60, cell number, Sulforhodamine B, 48 hours exposure, Table 7). For the same compound, the IC50 with B7474 (cell number, Sulforhodamine B, 48 hours exposure, Table 6) was 0.899 µg/mL (≈ 2.36 µM); in the test with A27805 (setting [5]), 0.602 µg/mL (≈ 1.58 µM); with A431 [1] (cell number, Sulforhodamine B, 48 hours exposure, read-out: IC50 A431), 0.766 µg/mL (≈ 2.01 µM); with CX1 (CX-1, cell number, Sulforhodamine B, 48 hours exposure, Table 4), 0.978 µg/mL (≈ 2.56 µM); in the test on SW620 (cell number, Sulforhodamine B, 48 hours exposure, read-out: IC50 SW620), above 100 µg/mL; in the test with HTB161 (setting [5]), 0.667 µg/mL (≈ 1.75 µM). The IC50 with A549 (A549, cell number, Sulforhodamine B, 48 hours exposure, Table 6) was 0.214 µg/mL (≈ 0.56 µM); with NHEK ([3H]-thymidine incorporation), 60 nM; in [2] it was 1.5 nM; with DU145 (DU-145, cell number, Sulforhodamine B, 48 hours exposure, Table 7), 0.113 µg/mL (≈ 0.297 µM); in the test on A2780DDP (setting [5]), 0.596 µg/mL (≈ 1.56 µM); in the test on CCL228 (cell number, Sulforhodamine B, 48 hours exposure, Table 5), 4.38 µg/mL (≈ 11.5 µM). In addition, the IC50 in the test with T47D (cell number, Sulforhodamine B, 48 hours exposure, Table 6, read-out: IC50 T47D) came to 6.55 µg/mL (≈ 17.2 µM); in the test with HCT15 (HCT-15, cell number, Sulforhodamine B, 48 hours exposure, Table 5), 0.641 µg/mL (≈ 1.68 µM); in the test on CACO2 (Caco-2, cell number, Sulforhodamine B, 48 hours exposure, Table 5) it was 0.71 µg/mL (≈ 1.86 µM); in the test on MIP (setting [5]), 0.534 µg/mL (≈ 1.4 µM); in the test with CCRF-CFM (cell number, Sulforhodamine B, 48 hours exposure, Table 7), 0.729 µg/mL (≈ 1.91 µM); in the test on LOX (cell number, Sulforhodamine B, 48 hours exposure, read-out: IC50 LOX), 0.316 µg/mL (≈ 0.828 µM).

Turning to `N#Cc1cnc2ccc([N+](=O)[O-])cc2c1Nc1ccc(Br)c(Br)c1` [Example 20, 4-[(3,4-Dibromophenyl)amino]-6-nitro-3-quinolinecarbonitrile], the IC50 with A431 [4] is 35000 nM; in the test with NHEK ([3H]-thymidine incorporation) it was 650 nM.

(Values after patent publication EP0973746B1, “SUBSTITUTED 3-CYANO QUINOLINES” (Wyeth Holdings Corporation, priority 1997, dated 1998).)
